Consider 54 compounds from the OPERA property sets (Mansouri et al. 2018).

Settings in one series: not given
In the case of `CCN(CC)c1c([N+](=O)[O-])cc(C(F)(F)F)c(N)c1[N+](=O)[O-]`, the log10 Koc (L/kg) was 3.63; the log10 vapour pressure (mmHg) was -5.44; the melting point (as a rule, the temperature of the solid-liquid transition) is 98 °C. `CNCc1ccccc1`: the boiling point – broadly, the temperature at which the vapour pressure of the liquid equals the pressure above it – worked out at 180 °C. `CN(C)NC(=O)CCC(=O)O` gave a log10 Koc (L/kg) of 0.95 and a melting point of 154 °C. Regarding `ClC(c1ccccc1)c1ccccc1`, the melting point was found to be 16 °C. On the same count and under the same terms, next, `C[N+]12CCC(CC1)C(OC(=O)C(O)(c1ccccc1)c1ccccc1)C2.[Br-]` (stereo unspecified): 240 °C. In turn, `OCCC1CCCC1` showed a boiling point of 183 °C. Regarding `CCc1ccco1`, the boiling point stood at 92 °C.

On to `COC(=O)c1ccccc1S(=O)(=O)NC(=O)Nc1nc(C)cc(C)n1`, for which the log10 Koc (L/kg) came to 1.62 and the melting point was 204 °C. `O=C1CN=C(c2ccccc2Cl)c2cc([N+](=O)[O-])ccc2N1` displayed a melting point of 238 °C. Same read-out and setting: next, `COc1ccc(C(N)=O)cc1OC`: 164 °C. `C=CC(C)C(C)C` (stereo unspecified) displayed a boiling point of 80.8 °C. `Cc1ccc(O)c(C(C)C)c1` displayed a boiling point of 228 °C and a melting point of 36.5 °C. As to `CCCCN(CCCC)C(=O)COC(=O)c1ccccc1`, the melting point was 25 °C. As to `CC(C)(Cl)Br`, the boiling point was 95 °C.

As for `CCCCC(CC)CCC(=O)CC(C)C` (stereo unspecified), the boiling point amounted to 252 °C. Regarding `CC1(C)CC(O)CC(C)(C)N1`, the ready biodegradability entry is “not readily biodegradable”. Compound `CN(C)CCc1c[nH]c2ccc(O)cc12` had a melting point of 146 °C. The compound `Cl.N=C(N)SCc1ccccc1` gave a melting point of 173 °C. Consider `CN(CCO)c1nc2c(c(=O)n(C)c(=O)n2C)n1C`, for which the melting point worked out at 105 °C. On to `Cc1nc2ccccc2o1`, for which the boiling point is 200 °C and the melting point came out at 9.5 °C. In the case of `C=C(C)CCCCC`, the boiling point was determined as 119 °C, the log10 vapour pressure (mmHg) turned out to be 1.3 and the melting point was -90 °C.

In turn, `CCOC(=O)C(NC=O)C(=O)OCC` displayed a melting point of 48.5 °C.

`CC(=O)OCCCOC(C)=O` showed a boiling point of 210 °C. `CCCCCCCCCCCCCCCCCC(=O)OCCCC`: the boiling point turned out to be 343 °C and the melting point amounted to 27 °C.

`CC(C)NCC1CCc2cc(CO)c([N+](=O)[O-])cc2N1` (stereo unspecified) had a melting point of 148 °C.

With `CC(C)(O)C(Cl)(Cl)Cl`, the boiling point came out at 167 °C, the melting point came out at 97 °C and the ready biodegradability result was “not readily biodegradable”. As for `CC[C@@H](N)CO`, the boiling point is 178 °C and the melting point was -2 °C. `CC(C)(C)OOC(C)(C)CCC(C)(C)OOC(C)(C)C`: the melting point came out at 8 °C and the ready biodegradability entry is reported as “not readily biodegradable”. Regarding `CNC(=O)ON=C(C)C(C)SC` (stereo unspecified), the log10 vapour pressure (mmHg) was -4.1 and the melting point was 25 °C. In the case of `CC(C)(c1cc(Cl)c(O)c(Cl)c1)c1cc(Cl)c(O)c(Cl)c1`, the melting point is 135 °C.

For `CCCCC(C)c1ccccc1` (stereo unspecified), the boiling point was found to be 208 °C. As to `CCCCCCCCC(C)=O`, the boiling point was 210 °C, the log10 vapour pressure (mmHg) is -0.571, the melting point turned out to be 14 °C and the ready biodegradability result is given as “readily biodegradable”. On to `Cl.N=C(N)N`, for which the melting point came to 182 °C. Compound `COP(=O)(OC)OC` showed a boiling point of 197 °C, a log10 Henry constant (atm·m³/mol) of -8.14, a log10 vapour pressure (mmHg) of -0.0706 and a melting point of -46 °C. In addition, the ready biodegradability result is reported as “not readily biodegradable”. In turn, `O=C(OC(=O)C(F)(F)F)C(F)(F)F` displayed a boiling point of 39.5 °C, a log10 vapour pressure (mmHg) of 1.61 and a melting point of -65 °C. Regarding `CCCCCCCCCCCCBr`, the boiling point turned out to be 276 °C, the log10 vapour pressure (mmHg) is -2.41 and the melting point is -9.5 °C. `CC(C)[C@@H](C)/C=C/[C@@H](C)[C@H]1CC[C@H]2C3=CC=C4C[C@@H](O)CC[C@]4(C)[C@H]3CC[C@]12C` came in with a melting point of 127 °C. Compound `CC[N+](C)(C)CCOC(=O)CCC(=O)OCC[N+](C)(C)CC.[Br-].[Br-]` came in with a melting point of 158 °C.

In turn, `COc1cc(OC)nc(Sc2cccc(Cl)c2C(=O)O)n1` displayed a melting point of 150 °C.

The compound `CCC(CC)CC(C)C` gave a boiling point of 134 °C. `Cc1c(F)c(F)c(F)c(F)c1F` showed a boiling point of 118 °C and a melting point of -29.8 °C.

The compound `CCOc1ccc(C=O)cc1` displayed a boiling point of 249 °C and a melting point of 13.5 °C. `CC(=O)N1C[C@H](O)C[C@H]1C(=O)O` showed a melting point of 132 °C.

With `FC(F)(F)C1(F)C(F)(F)C(F)(F)C(F)(F)C(F)(F)C1(F)C(F)(F)F` (stereo unspecified), the ready biodegradability result is listed as “not readily biodegradable”. For the compound `O=C(C(=O)c1ccco1)c1ccco1`, the melting point was determined as 164 °C. On the same count and under the same terms, next, `O=C(O)c1c(Cl)c(Cl)c(Cl)c(Cl)c1C(O)=Nc1cccc(Cl)c1Cl`: 198 °C.

In the case of `Nc1ccc(S(=O)(=O)NCc2ccccc2)cc1`, the melting point was determined as 171 °C. Still for that read-out and setting: next, `C[C@]12CC[C@H](O)C[C@H]1CC[C@@H]1[C@@H]2CC[C@]2(C)[C@@H](C3=CC(=O)OC3)CC[C@]12O`: 253 °C. With `CCC(O)c1ccccc1` (stereo unspecified), the boiling point amounted to 219 °C.

Staying with this series, now noted: fish.
The compound `Oc1c(Cl)cccc1Cl` gave a log10 BCF of 1.08. For the compound `c1cc[n+]2c(c1)-c1cccc[n+]1CC2`, the log10 BCF came to 0.76. `c1ccc2sc(SSc3nc4ccccc4s3)nc2c1` showed a log10 BCF of 1.42 and a log10 biotransformation half-life (days) of -0.91. On to `CCCCOCCOP(=O)(OCCOCCCC)OCCOCCCC`, for which the log10 BCF is 0.76. The same measure, in the same setting: next, `CC(C)(O)C(Cl)(Cl)Cl`: 0.23. Take `CC(C)(C)OOC(C)(C)CCC(C)(C)OOC(C)(C)C`: the log10 BCF amounted to 3.48 and the log10 biotransformation half-life (days) is 0.77. Take `COP(=O)(OC)OC`: the log10 BCF is 0.15. On to `CC(=CC(C)C)CC(C)C`, for which the log10 biotransformation half-life (days) worked out at 0.92.
